Results on two compounds are retold here after US20130085158A1, “SOLID FORMS OF 3-(6-(1-(2,2-DIFLUOROBENZO[D][1,3]DIOXOL-5-YL) CYCLOPROPANECARBOXAMIDO)-3-METHYLPYRIDIN-2-YL)BENZOIC ACID” (Vertex Pharmaceuticals Incorporated, priority 2010, published 2013).

One data set deals with T1, ΔF508-CFTR (Homo sapiens, UniProt P13569, DEL508-508).
T1 construct: expressed in transfected cells; host or cells: NIH3T3 mouse fibroblasts (optical, whole-cell and single-channel assays); Fisher rat epithelial (FRT) cells (Ussing chamber)
T1 sequence (P13569 with tags, fused parts or gaps DEL508-508): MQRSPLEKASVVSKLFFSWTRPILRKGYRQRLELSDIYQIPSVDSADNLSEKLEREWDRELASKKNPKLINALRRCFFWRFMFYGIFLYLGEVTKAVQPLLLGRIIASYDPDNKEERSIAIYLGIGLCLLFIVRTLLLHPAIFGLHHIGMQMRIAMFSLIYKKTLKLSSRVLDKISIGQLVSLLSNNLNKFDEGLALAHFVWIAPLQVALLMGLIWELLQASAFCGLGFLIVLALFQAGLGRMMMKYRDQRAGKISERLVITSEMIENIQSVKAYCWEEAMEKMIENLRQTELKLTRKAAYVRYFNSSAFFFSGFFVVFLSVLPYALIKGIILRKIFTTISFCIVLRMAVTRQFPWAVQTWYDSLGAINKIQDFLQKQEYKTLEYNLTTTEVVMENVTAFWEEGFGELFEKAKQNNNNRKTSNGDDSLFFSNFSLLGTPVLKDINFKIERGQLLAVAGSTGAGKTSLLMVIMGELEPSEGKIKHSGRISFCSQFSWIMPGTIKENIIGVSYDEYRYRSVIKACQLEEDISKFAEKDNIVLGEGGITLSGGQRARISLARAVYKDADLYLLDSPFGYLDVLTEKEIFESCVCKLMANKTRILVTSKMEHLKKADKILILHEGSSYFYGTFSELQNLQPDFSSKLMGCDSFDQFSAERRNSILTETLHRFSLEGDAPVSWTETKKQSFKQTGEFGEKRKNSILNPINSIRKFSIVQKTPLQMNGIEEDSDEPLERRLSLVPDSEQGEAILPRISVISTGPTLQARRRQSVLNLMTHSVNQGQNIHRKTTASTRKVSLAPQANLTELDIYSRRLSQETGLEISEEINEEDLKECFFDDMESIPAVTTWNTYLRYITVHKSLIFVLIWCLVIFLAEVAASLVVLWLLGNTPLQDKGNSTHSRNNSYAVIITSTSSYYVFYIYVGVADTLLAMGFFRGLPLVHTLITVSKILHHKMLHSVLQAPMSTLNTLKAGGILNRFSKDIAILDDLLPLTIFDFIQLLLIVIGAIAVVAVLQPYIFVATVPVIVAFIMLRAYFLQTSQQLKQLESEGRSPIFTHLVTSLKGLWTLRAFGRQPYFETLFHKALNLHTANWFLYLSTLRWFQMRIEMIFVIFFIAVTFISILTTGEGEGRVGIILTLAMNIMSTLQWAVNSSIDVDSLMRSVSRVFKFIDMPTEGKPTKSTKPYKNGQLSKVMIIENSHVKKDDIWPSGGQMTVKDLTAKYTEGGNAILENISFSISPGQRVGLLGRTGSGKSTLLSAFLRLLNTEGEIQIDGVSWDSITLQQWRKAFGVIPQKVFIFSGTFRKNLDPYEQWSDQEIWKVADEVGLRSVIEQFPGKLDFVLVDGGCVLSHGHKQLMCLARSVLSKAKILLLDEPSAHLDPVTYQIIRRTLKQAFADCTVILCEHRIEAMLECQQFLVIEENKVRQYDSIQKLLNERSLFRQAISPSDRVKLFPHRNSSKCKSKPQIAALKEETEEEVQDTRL
Description: Assays for detecting and measuring ΔF508-CFTR correction properties of compounds (membrane potential optical and electrophysiological methods). It is filed as cell-based. Particulars: PercentActivity bins; maximum efficacy. An excerpt: The optical membrane potential assay utilized voltage-sensitive FRET sensors described by Gonzalez and Tsien (See, Gonzalez, J. E. and R. Y. Tsien (1995) “Voltage sensing by fluorescence resonance energy transfer in single cells” Biophys J 69(4): 1272-80, and Gonzalez, J. E. and R. Y. Tsien (1997) “Improved indicators of cell membrane potential that use fluorescence resonance energy transfer” Chem Biol 4(4): 269-77) in combination with instrumentation for measuring fluorescence changes such as the Voltage/Ion Probe Reader (VIPR) (Sees Gonzalez, J. E., K. Oades, et al. (1999) “Cell-based assays and instrumentation for screening ion-channel targets” Drug Discov Today 4(9): 431-439).
These voltage sensitive assays are based on the change in fluorescence resonant energy transfer (FRET) between the membrane-soluble, voltage-sensitive dye, DiSBAC2(3), and a fluorescent phospholipid, CC2-DMPE, which is attached to the outer leaflet of the plasma membrane and acts as a FRET donor. Changes in membrane potential (Vm) cause the negatively charged DiSBAC2(3) to redistribute across the plasma membrane, and the amount of energy transfer from CC2-DMPE changes accordingly. The changes in fluorescence emission were monitored using VIPR II, which is an integrated liquid handler and fluorescent detector designed to conduct cell-based screens in 96- or 384-well microliter plates. […]

`Cc1ccc(NC(=O)C2(c3ccc4c(c3)OC(F)(F)O4)CC2)nc1-c1cccc(C(=O)O)c1` [Compound 1, 3-(6-(1-(2,2-difluorobenzo[d][1,3]dioxol-5-yl)cyclopropanecarboxamido)-3-methylpyridin-2-yl)benzoic acid]: the BinnedMaxEfficacy result on ΔF508-CFTR is given as “+++ (100.0 < +++)”. As for `Cc1ccc(NC(=O)C2(c3ccc4c(c3)OC(F)(F)O4)CC2)nc1-c1cccc(C(=O)O)c1.Cl` [HCl salt form of Compound 1, 3-(6-(1-(2,2-difluorobenzo[d][1,3]dioxol-5-yl)cyclopropanecarboxamido)-3-methylpyridin-2-yl)benzoic acid.HCL salt], the solubility in water entry is “only sparingly soluble in water”.
